In patent US20230055237A1, “COMPOUNDS AND METHODS FOR THE TREATMENT OF CYSTIC FIBROSIS” (Flatley Discovery Lab, LLC, priority 2019, published 2023):

Target: T1, CFTR (Homo sapiens, UniProt P13569, DEL508-508)
T1 construct: Primary CF airway epithelial cells were obtained from the UNC Cystic Fibrosis Tissue Procurement and Cell Culture Core; host or cells: primary CF airway epithelial cells, differentiated at the air-liquid interface
Assay: Equivalent current assay in primary CF airway epithelial cells (NAUC, combination with 1st site corrector FDL169 or VX-809)
Assay type: cell-based
Conditions: 37° C., 24 h

[1] = test compound 1 μM in combination with 1st site corrector FDL169 (3 μM)
[2] = test compound 3 μM in combination with 1st site corrector FDL169 (3 μM)
[3] = test compound 10 μM in combination with 1st site corrector FDL169 (3 μM)
[4] = test compound 10 μM in combination with 1st site corrector VX-809 (3 μM)
[5] = test compound 3 μM in combination with 1st site corrector VX-809 (3 μM)
[6] = test compound 1 μM in combination with 1st site corrector VX-809 (3 μM)

T1 sequence (P13569 with tags, fused parts or gaps DEL508-508): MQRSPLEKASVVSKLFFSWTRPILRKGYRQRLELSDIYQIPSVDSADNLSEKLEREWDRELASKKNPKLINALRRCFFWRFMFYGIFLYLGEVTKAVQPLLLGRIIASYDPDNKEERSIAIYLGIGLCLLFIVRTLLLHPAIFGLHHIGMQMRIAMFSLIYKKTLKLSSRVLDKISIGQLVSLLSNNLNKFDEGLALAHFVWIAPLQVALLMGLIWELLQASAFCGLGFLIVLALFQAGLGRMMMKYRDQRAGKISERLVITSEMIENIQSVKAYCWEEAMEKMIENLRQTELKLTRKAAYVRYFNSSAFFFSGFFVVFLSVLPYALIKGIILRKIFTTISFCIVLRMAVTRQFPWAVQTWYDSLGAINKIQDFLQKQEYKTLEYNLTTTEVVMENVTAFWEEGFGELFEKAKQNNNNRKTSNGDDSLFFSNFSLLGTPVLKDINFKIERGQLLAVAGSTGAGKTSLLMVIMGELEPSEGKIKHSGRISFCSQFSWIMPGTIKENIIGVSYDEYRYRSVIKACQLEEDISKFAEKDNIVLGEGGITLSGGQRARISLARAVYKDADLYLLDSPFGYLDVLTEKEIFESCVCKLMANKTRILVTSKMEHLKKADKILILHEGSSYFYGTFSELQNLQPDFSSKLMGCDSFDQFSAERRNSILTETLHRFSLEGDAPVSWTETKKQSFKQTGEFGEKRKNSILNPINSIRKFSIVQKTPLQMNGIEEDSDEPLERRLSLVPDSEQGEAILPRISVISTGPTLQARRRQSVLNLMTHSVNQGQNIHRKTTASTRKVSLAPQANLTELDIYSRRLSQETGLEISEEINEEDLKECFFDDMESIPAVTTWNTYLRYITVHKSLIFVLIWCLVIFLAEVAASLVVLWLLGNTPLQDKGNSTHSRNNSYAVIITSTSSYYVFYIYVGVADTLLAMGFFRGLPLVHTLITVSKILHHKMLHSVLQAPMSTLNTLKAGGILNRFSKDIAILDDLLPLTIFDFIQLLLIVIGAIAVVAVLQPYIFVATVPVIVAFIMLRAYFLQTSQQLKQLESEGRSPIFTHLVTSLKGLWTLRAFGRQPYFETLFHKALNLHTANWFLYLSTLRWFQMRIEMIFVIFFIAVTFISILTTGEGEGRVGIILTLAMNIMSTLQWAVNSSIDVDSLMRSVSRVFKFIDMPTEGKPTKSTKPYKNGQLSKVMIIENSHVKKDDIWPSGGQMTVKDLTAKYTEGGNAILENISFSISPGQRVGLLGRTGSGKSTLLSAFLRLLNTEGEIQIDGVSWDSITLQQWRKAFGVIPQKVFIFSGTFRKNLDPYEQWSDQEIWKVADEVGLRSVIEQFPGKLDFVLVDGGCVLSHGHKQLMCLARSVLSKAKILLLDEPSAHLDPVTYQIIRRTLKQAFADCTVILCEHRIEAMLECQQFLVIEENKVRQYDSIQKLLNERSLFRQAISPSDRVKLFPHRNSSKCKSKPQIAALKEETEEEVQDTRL

Structure (SMILES)	Nauc @ 1 μM [1]	Nauc @ 3 μM [2]	Nauc @ 10 μM [3]	Nauc @ 10 μM [4]	Nauc @ 3 μM [5]	Nauc @ 1 μM [6]
CN1C(=O)[C@]2(c3cc(Cl)cc(Cl)c31)[C@@H](C(=O)O)[C@@H](C(=O)N(CC1CC1)c1cc(Cl)cc(Cl)c1)[C@H]1CC(F)(F)CN12 [Example 202]	++ (NAUC “++” refers to an observed NAUC 170-140% of positive control)	++ (NAUC “++” refers to an observed NAUC 170-140% of positive control)	+ (NAUC “+” refers to an observed NAUC <140% of positive control)			
O=C(Nc1ccc(O)cc1)C1C2CC(F)(F)CN2C2(C(=O)Nc3c(Cl)cc(Cl)cc32)C1C(=O)O (centres unmarked) [Example 77.a]				+ (NAUC “+” refers to an observed NAUC <140% of positive control)		
O=C(Nc1cc(Cl)cc(Cl)c1)C1C2CC3(CC3)CN2C2(C(=O)Nc3c(Cl)cc(Cl)cc32)C1C(=O)O (centres unmarked) [Example 16]				+++ (NAUC “+++” refers to an observed NAUC>170% of positive control)	+++ (NAUC “+++” refers to an observed NAUC>170% of positive control)	
CN(C(=O)[C@H]1[C@H]2CC(F)(F)CN2[C@]2(C(=O)Nc3c(Cl)cc(Cl)cc32)[C@H]1C(=O)O)c1cccc(C(F)(F)F)c1 [Example 157]	++ (NAUC “++” refers to an observed NAUC 170-140% of positive control)	++ (NAUC “++” refers to an observed NAUC 170-140% of positive control)				
CN(C(=O)[C@H]1[C@H]2CC(F)(F)CN2C2(C(=O)Nc3ccccc32)[C@H]1C(=O)O)c1cc(Cl)cc(Cl)c1 (some centres unmarked) [Example 102]				+ (NAUC “+” refers to an observed NAUC <140% of positive control)		
O=C(O)[C@H]1[C@@H](C(=O)N(CC2CC2)c2cc(Cl)cc(Cl)c2)[C@H]2CC(F)(F)CN2[C@]12C(=O)Nc1c(Cl)cc(Cl)cc12 [Example 173]	+++ (NAUC “+++” refers to an observed NAUC>170% of positive control)	+++ (NAUC “+++” refers to an observed NAUC>170% of positive control)	+ (NAUC “+” refers to an observed NAUC <140% of positive control)			
O=C(Nc1cc(Cl)cc(Cl)c1)C1C2N(CCC2(F)F)C2(C(=O)Nc3c(Cl)cc(Cl)cc32)C1C(=O)O (centres unmarked) [Example 59]				++ (NAUC “++” refers to an observed NAUC 170-140% of positive control)	+ (NAUC “+” refers to an observed NAUC <140% of positive control)	
CN(O)C(=O)C1C(C(=O)Nc2cc(Cl)cc(Cl)c2)C2CCCN2C12C(=O)Nc1c(Cl)cc(Cl)cc12 (single isomer, unassigned) [Example 235b, 5,7-dichloro-N1′-(3,5-dichlorophenyl)-N2′-hydroxy-N2′-methyl-2-oxo-1′,2′,5′,6′,7′,7a′-hexahydrospiro[indoline-3,3′-pyrrolizine]-1′,2′-dicarboxamide]				+++ (NAUC “+++” refers to an observed NAUC>170% of positive control)	+++ (NAUC “+++” refers to an observed NAUC>170% of positive control)	+++ (NAUC “+++” refers to an observed NAUC>170% of positive control)
CN1C(C(F)(F)F)C(C(=O)Nc2cc(Cl)cc(Cl)c2)C(C(=O)O)C12C(=O)Nc1c(Cl)cc(Cl)cc12 (centres unmarked) [Example 43]				++ (NAUC “++” refers to an observed NAUC 170-140% of positive control)	+++ (NAUC “+++” refers to an observed NAUC>170% of positive control)	
CN(C(=O)[C@H]1[C@H]2CC(F)(F)CN2[C@]2(C(=O)N(C)c3c(Cl)cc(Cl)cc32)[C@H]1C(=O)O)c1cc(Cl)cc(Cl)c1 [Example 200, (1′R,2′S,3R,7a′R)-5,7-dichloro-1-((3,5-dichlorophenyl)(methyl)carbamoyl)-6′,6′-difluoro-1-methyl-2-oxo-1′,2′,5′,6′,7′,7a′-hexahydrospiro[indoline-3,3′-pyrrolizine]-2′-carboxylic acid]	++ (NAUC “++” refers to an observed NAUC 170-140% of positive control)	++ (NAUC “++” refers to an observed NAUC 170-140% of positive control)	++ (NAUC “++” refers to an observed NAUC 170-140% of positive control)	+++ (NAUC “+++” refers to an observed NAUC>170% of positive control)	+++ (NAUC “+++” refers to an observed NAUC>170% of positive control)	+++ (NAUC “+++” refers to an observed NAUC>170% of positive control)
O=C(Nc1cc(Cl)cc(Cl)c1)C1C2CC(F)(F)CN2C2(C(=O)Nc3c(Cl)cc(Cl)cc32)C1C(=O)O (centres unmarked) [Example 7]				+++ (NAUC “+++” refers to an observed NAUC>170% of positive control)		
CN(C(=O)[C@H]1[C@H]2CC(F)(F)CN2[C@]2(C(=O)Nc3c(Cl)cc(Cl)cc32)[C@H]1C(=O)OCOC(=O)C(C)(C)C)c1cc(Cl)cc(Cl)c1 (racemic) [Example 251a, rac-(pivaloyloxy)methyl (1′R,2′S,3R,7a′R)-5,7-dichloro-1-((3,5-dichlorophenyl)(methyl)carbamoyl)-6′,6′-difluoro-2-oxo-1′,2′,5′,6′,7′,7a′-hexahydrospiro[indoline-3,3′-pyrrolizine]-2′-carboxylate]				+ (NAUC “+” refers to an observed NAUC <140% of positive control)		
CN(C(=O)[C@H]1[C@H]2CC(F)(F)CN2[C@]2(C(=O)Nc3c(Cl)cc(Cl)cc32)[C@H]1C(=O)O)c1ccccc1C(F)(F)F [Example 176]	+++ (NAUC “+++” refers to an observed NAUC>170% of positive control)	+++ (NAUC “+++” refers to an observed NAUC>170% of positive control)				
O=C(Nc1cc(Cl)cc(Cl)c1)C1CN(CC(F)(F)F)C2(C(=O)Nc3c(Cl)cc(Cl)cc32)C1C(=O)O (centres unmarked) [Example 79a]				+ (NAUC “+” refers to an observed NAUC <140% of positive control)	+ (NAUC “+” refers to an observed NAUC <140% of positive control)	+ (NAUC “+” refers to an observed NAUC <140% of positive control)
CC(=O)N1C(C(C)C)C(C(=O)Nc2cc(Cl)cc(Cl)c2)C(C(=O)O)C12C(=O)Nc1c(Cl)cc(Cl)cc12 (centres unmarked) [Example 38]				++ (NAUC “++” refers to an observed NAUC 170-140% of positive control)	+ (NAUC “+” refers to an observed NAUC <140% of positive control)	
O=C(Nc1cc(Cl)cc(Cl)c1)C1C(C(F)(F)c2ccc(C(F)(F)F)cc2)NC2(C(=O)Nc3c(Cl)cc(Cl)cc32)C1C(=O)O (centres unmarked) [Example 73.a]				+ (NAUC “+” refers to an observed NAUC <140% of positive control)		
CN(O)C(=O)C1C(C(=O)Nc2cc(Cl)cc(Cl)c2)C2CC(F)(F)CN2C12C(=O)Nc1c(Cl)cc(Cl)cc12 (single isomer, unassigned) [Example 225b, 5,7-dichloro-N1′-(3,5-dichlorophenyl)-6′,6′-difluoro-N2′-hydroxy-N2′-methyl-2-oxo-1′,2′,5′,6′,7′,7a′-hexahydrospiro[indoline-3,3′-pyrrolizine]-1′,2′-dicarboxamide]				+++ (NAUC “+++” refers to an observed NAUC>170% of positive control)	+++ (NAUC “+++” refers to an observed NAUC>170% of positive control)	+ (NAUC “+” refers to an observed NAUC <140% of positive control)
COc1cc(C(F)(F)F)cc(N(C)C(=O)[C@H]2[C@H]3CC(F)(F)CN3[C@]3(C(=O)Nc4c(Cl)cc(Cl)cc43)[C@H]2C(=O)O)n1 [Example 133]				+++ (NAUC “+++” refers to an observed NAUC>170% of positive control)	+++ (NAUC “+++” refers to an observed NAUC>170% of positive control)	+++ (NAUC “+++” refers to an observed NAUC>170% of positive control)
